Among the data in ChEMBL document CHEMBL4483862, “Open-source discovery of chemical leads for next-generation chemoprotective antimalarials” (2018) are IC50 and IC90 values, retold here.

This assay relates to Plasmodium berghei. The assay is described as follows: Luciferase/luciferin-expressing antifolate-resistant parasites were used to infect a culture of HepG2 cells that were pre-incubated with compounds. Infected hepatocytes emit light due to the luciferase reaction. Assay results are presented as the percent inhibition of light emission compared to control. […]. The class given is functional. As to conditions: sporozoite; for IC90: read-out: LUCIFERASE INFECTION ASSAY - IC90.

Setting [1] is: read-out: LUCIFERASE INFECTION ASSAY - IC50.

The structures appear in SMILES notation. Some results are limits rather than exact numbers.

For orientation: IC50 means the concentration that inhibits the measured activity by half. A word on the IC90: it is the point of the concentration-response curve where the effect stands at 90%.

Regarding `Cc1cc(C(=O)CSc2nc3ccccc3c(=O)n2-c2ccc(OC(F)F)cc2)c(C)n1-c1ccc(F)c(Cl)c1`, the IC90 is greater than 10 µM. Besides, the IC50 (FFLUC_HILL_SLOPE 1.77, FFLUC_R_SQUARED 0.792, PBLUC_HILL_SLOPE 12.5, PBLUC_R_SQUARED 0.0853, read-out: LUCIFERASE INFECTION ASSAY - IC50) is 9.61 µM.
`O=C(CCc1ccc2c(c1)OCO2)Nc1nc(-c2ccc(Br)s2)cs1`: the concentration for an effect of 90% (IC90) was greater than 10 µM. Also, the IC50 (PBLUC_HILL_SLOPE 0.607, PBLUC_R_SQUARED 0.509, read-out: LUCIFERASE INFECTION ASSAY - IC50) is 5.99 µM.
With `CN(C)c1ccc(-c2cnc3cnc(-c4ccc(C(=O)NCCO)cc4)cn23)cc1`, the concentration for an effect of 90% (IC90) was greater than 8.22 µM. Also, the IC50 (PBLUC_HILL_SLOPE 2.64, PBLUC_R_SQUARED 0.078, read-out: LUCIFERASE INFECTION ASSAY - IC50) amounted to 6.1 µM.
With `C=CCCC(=O)Nc1ccc(Br)cn1`, the IC90 is greater than 12.9 µM. For the setting “HEPG2TOX_HILL_SLOPE 2.37, HEPG2TOX_R_SQUARED 0.964, PBLUC_HILL_SLOPE 2.08, PBLUC_R_SQUARED 0.0582, read-out: LUCIFERASE INFECTION ASSAY - IC50”, the IC50 was 5.2 µM.
`O=C(Nc1ccc(-c2nc3ccccc3[nH]2)cc1)c1ccc(NC(=O)C2CC2)s1`: the concentration for an effect of 90% (IC90) is 0.674 µM. Moreover, the 50% inhibitory concentration (IC50) (HEPG2TOX_HILL_SLOPE 1.89, HEPG2TOX_R_SQUARED 0.991, PBLUC_HILL_SLOPE 4.29, PBLUC_R_SQUARED 0.909, read-out: LUCIFERASE INFECTION ASSAY - IC50) is 0.404 µM.
On to `CCOc1cc(/C=C/C(=O)c2ccc(-c3ccccc3)cc2)ccc1OCC(=O)N(C)C`, for which the IC90 was greater than 10 µM. Under “HEPG2TOX_HILL_SLOPE 0.976, HEPG2TOX_R_SQUARED 0.779, read-out: LUCIFERASE INFECTION ASSAY - IC50”, the 50% inhibitory concentration (IC50) is greater than 10 µM.
On to `Cc1nc(SCC(=O)NCCN2C(=O)CSC2=O)n(C2CCCCC2)c1C`, for which the concentration for an effect of 90% (IC90) is greater than 10 µM. Besides, under setting [1], the 50% inhibitory concentration (IC50) is greater than 10 µM.
For `CSCCC(NC(=O)c1ccc([N+](=O)[O-])cc1Cl)C(=O)OCC(=O)Nc1ccc(OC(F)(F)F)cc1` (configuration not stated), the 90% effect concentration (IC90) is greater than 10 µM. In addition, the IC50 under setting [1] is greater than 10 µM.
Regarding `O=C1CN(C(=O)Cc2ccc3c(c2)CCO3)c2ccccc2N1`, the IC90 was greater than 10 µM. In addition, the half-inhibitory concentration (IC50) under setting [1] was greater than 10 µM.
On to `Cc1cccc(-c2cn3c(-c4ccc(N(C)C)cc4)cnc3cn2)c1C`, for which the 90% effect concentration (IC90) came to 1.28 µM. Also, the IC50 (HEPG2TOX_HILL_SLOPE 0.565, HEPG2TOX_R_SQUARED 0.75, PBLUC_HILL_SLOPE 0.899, PBLUC_R_SQUARED 0.883, read-out: LUCIFERASE INFECTION ASSAY - IC50) worked out at 0.111 µM.
For the compound `CCCc1cc(NCCN(C)C)n2ncc(-c3ccccc3)c2n1`, the IC90 was greater than 10.2 µM. Also, the IC50 (PBLUC_HILL_SLOPE 2.98, PBLUC_R_SQUARED 0.437, read-out: LUCIFERASE INFECTION ASSAY - IC50) worked out at 4.93 µM.
Consider `N#Cc1ccc(/C=N/NC(=O)c2ccc(COc3ccccc3-c3ccccc3)cc2)cc1`, for which the 90% effect concentration (IC90) was 9.24 µM. For the same compound, the IC50 (FFLUC_HILL_SLOPE 15.4, FFLUC_R_SQUARED 0.374, HEPG2TOX_HILL_SLOPE 8.76, HEPG2TOX_R_SQUARED 0.561, PBLUC_HILL_SLOPE 30.2, PBLUC_R_SQUARED 0.437, read-out: LUCIFERASE INFECTION ASSAY - IC50) is 8.6 µM.
For the compound `Cc1ccc(C(C)C)cc1OCC(=O)N1CCC(C(=O)Nc2ccccc2O)CC1`, the IC90 is 4.58 µM. For the same compound, under “PBLUC_HILL_SLOPE 135, PBLUC_R_SQUARED 0.614, read-out: LUCIFERASE INFECTION ASSAY - IC50”, the half-inhibitory concentration (IC50) is 4.51 µM.
Consider `CC(Sc1nnc(-c2ccc(C(C)(C)C)cc2)o1)C(=O)Nc1ncc(Cl)cc1Cl` (configuration not stated), for which the IC90 stood at 3.61 µM. In addition, the half-maximal inhibitory concentration (IC50) (HEPG2TOX_HILL_SLOPE 7.53, HEPG2TOX_R_SQUARED 0.526, PBLUC_HILL_SLOPE 15.5, PBLUC_R_SQUARED 0.267, read-out: LUCIFERASE INFECTION ASSAY - IC50) is 3.13 µM.
With `Cc1cc(O)c(CN2CCN(S(=O)(=O)/C=C/c3ccccc3)CC2)cc1C(C)C`, the IC90 is greater than 10 µM. Moreover, the IC50 under setting [1] is greater than 10 µM.
With `COc1ccc(-c2cnc3cnc(-c4cccc(N)c4)cn23)cc1`, the IC90 came out at 1.68 µM. Where the note is “FFLUC_HILL_SLOPE 0.419, FFLUC_R_SQUARED 0.0515, PBLUC_HILL_SLOPE 8.9, PBLUC_R_SQUARED 0.87, read-out: LUCIFERASE INFECTION ASSAY - IC50”, the half-maximal inhibitory concentration (IC50) came out at 1.31 µM.
For the compound `Cc1nc2cc(NC(C)C(=O)Nc3ccc([N+](=O)[O-])cc3Cl)ccc2o1` (configuration not stated), the IC90 was greater than 10 µM. Under setting [1], the IC50 is greater than 10 µM.
Regarding `COC(=O)c1c(C)[nH]c(-c2csc(N3CCCCC3)n2)c1C`, the IC90 is greater than 10 µM. In addition, the IC50 under setting [1] was greater than 10 µM.
As to `Cc1nn(-c2ccccc2)c2c1C1(C(=O)Nc3ccccc31)N1N=NN(c3ccccc3)C1=N2` (configuration not stated), the IC90 was greater than 10 µM. The half-maximal inhibitory concentration (IC50) (PBLUC_HILL_SLOPE 0.947, PBLUC_R_SQUARED 0.0755, read-out: LUCIFERASE INFECTION ASSAY - IC50) is greater than 10 µM.
Turning to `CCCn1c(N)c(C(=O)COC(=O)C2(c3ccc(F)cc3)CCCC2)c(=O)[nH]c1=O`, the IC90 was 8.39 µM. Moreover, the IC50 (PBLUC_HILL_SLOPE 3.75, PBLUC_R_SQUARED 0.743, read-out: LUCIFERASE INFECTION ASSAY - IC50) is 4.66 µM.
For the compound `CC(NC(=O)COC(=O)c1cc(O)c2ccccc2c1O)C1CC2CCC1C2` (configuration not stated), the IC90 is greater than 10 µM. Also, under setting [1], the IC50 was greater than 10 µM.
Take `Cc1cc(C(=O)NCC#Cc2cccc(C(F)(F)F)c2)on1`: the IC90 was 8.21 µM. Besides, the IC50 (PBLUC_HILL_SLOPE 5.05, PBLUC_R_SQUARED 0.342, read-out: LUCIFERASE INFECTION ASSAY - IC50) amounted to 5.32 µM.
Turning to `Cc1cc(C(=O)Nc2ccncc2Cl)c(C)s1`, the concentration for an effect of 90% (IC90) is greater than 10 µM. Further, the IC50 under setting [1] was greater than 10 µM.
Take `O=C(Nc1nc2ccc([N+](=O)[O-])cc2s1)c1cccc(Cl)c1`: the 90% effect concentration (IC90) was greater than 10 µM. Besides, for the setting “HEPG2TOX_HILL_SLOPE 0.963, HEPG2TOX_R_SQUARED 0.986, PBLUC_HILL_SLOPE 0.779, PBLUC_R_SQUARED 0.754, read-out: LUCIFERASE INFECTION ASSAY - IC50”, the IC50 came to 0.754 µM.
For the compound `Cc1cccc(COc2cccc(C(=O)N3CCC(C(=O)NCc4ccccc4)CC3)c2)c1`, the IC90 is greater than 10 µM. In addition, where the note is “HEPG2TOX_HILL_SLOPE 5.74, HEPG2TOX_R_SQUARED 0.455, read-out: LUCIFERASE INFECTION ASSAY - IC50”, the concentration for half-maximal inhibition (IC50) was greater than 10 µM.
Regarding `CNc1snc(C)c1C(=O)N(C)Cc1ccc(OC(F)(F)F)cc1`, the concentration for an effect of 90% (IC90) came out at 2.72 µM. Further, the concentration for half-maximal inhibition (IC50) (HEPG2TOX_HILL_SLOPE 0.114, HEPG2TOX_R_SQUARED 0.0245, PBLUC_HILL_SLOPE 2.54, PBLUC_R_SQUARED 0.592, read-out: LUCIFERASE INFECTION ASSAY - IC50) came to 1.15 µM.
As for `C=CCNC(=O)CSc1nccc(-c2sc3sc(Br)c(C)c3c2C)n1`, the 90% effect concentration (IC90) was greater than 7.26 µM. Besides, the IC50 (HEPG2TOX_HILL_SLOPE 7.83, HEPG2TOX_R_SQUARED 0.735, PBLUC_HILL_SLOPE 0.44, PBLUC_R_SQUARED 0.419, read-out: LUCIFERASE INFECTION ASSAY - IC50) is 2.88 µM.
Take `O=C(Nc1ccc(F)c(Cl)c1)c1ccc(F)c(Cl)c1`: the IC90 is greater than 10.9 µM. In addition, the half-maximal inhibitory concentration (IC50) under setting [1] is greater than 10.9 µM.
With `Cc1ccc(-n2c(C)cc(C(=O)CN(c3ccccc3)S(=O)(=O)c3ccc(F)cc3)c2C)cc1C`, the 90% effect concentration (IC90) was greater than 10 µM. In addition, the IC50 (FFLUC_HILL_SLOPE 9.87, FFLUC_R_SQUARED 0.464, read-out: LUCIFERASE INFECTION ASSAY - IC50) is greater than 10 µM.
As to `c1ccc(C[n+]2ccc(-c3ncc(-c4ccc5ccccc5c4)o3)cc2)cc1`, the IC90 is 4.15 µM. The IC50 (HEPG2TOX_HILL_SLOPE 3.46, HEPG2TOX_R_SQUARED 0.77, PBLUC_HILL_SLOPE 12.4, 9.50, PBLUC_R_SQUARED 0.642, 0.816, read-out: LUCIFERASE INFECTION ASSAY - IC50) came to 3.38 µM.
In the case of `COc1cc(C)c2c(c1)C=CC1C2CCC2(C)C(O)CCC12` (configuration not stated), the IC90 is greater than 11.1 µM. The IC50 under setting [1] was greater than 11.1 µM.
For the compound `Cc1ccc(C(C)CCN2CCC3(CC2)C(=O)N(C2Cc4ccccc4C2)C(=O)N3CC(C)C)o1` (configuration not stated), the IC90 is greater than 6.91 µM. Further, the IC50 (HEPG2TOX_HILL_SLOPE 5.24, HEPG2TOX_R_SQUARED 0.932, PBLUC_HILL_SLOPE 15.5, PBLUC_R_SQUARED 0.389, read-out: LUCIFERASE INFECTION ASSAY - IC50) is 6.38 µM.
Consider `CC(C)NC(=O)/C(C#N)=C/c1cccc(Cl)c1Cl`, for which the IC90 is greater than 10 µM. The 50% inhibitory concentration (IC50) (HEPG2TOX_HILL_SLOPE 9.7, HEPG2TOX_R_SQUARED 0.0223, read-out: LUCIFERASE INFECTION ASSAY - IC50) was greater than 10 µM.
With `Clc1ccc(C2=NC(c3ccc(Cl)c(Cl)c3)N=C(c3ccc(Cl)cc3)S2)cc1`, the 90% effect concentration (IC90) is greater than 7.08 µM. In addition, the concentration for half-maximal inhibition (IC50) (PBLUC_HILL_SLOPE 0.411, PBLUC_R_SQUARED 0.521, read-out: LUCIFERASE INFECTION ASSAY - IC50) was greater than 7.08 µM.
As to `O=C(Nc1ccccc1)c1ccc(CN2CCC(O)CC2)cc1`, the IC90 is greater than 10 µM. For the same compound, where the note is “FFLUC_HILL_SLOPE 0.964, FFLUC_R_SQUARED 0.857, PBLUC_HILL_SLOPE 0.791, PBLUC_R_SQUARED 0.696, read-out: LUCIFERASE INFECTION ASSAY - IC50”, the IC50 is 1.04 µM.
With `CCCCOc1ccc(Nc2nc(C(N)Cc3ccc(F)cc3)cs2)nn1` (configuration not stated), the IC90 was greater than 8.52 µM. Besides, for the setting “PBLUC_HILL_SLOPE 19.3, PBLUC_R_SQUARED 0.0642, read-out: LUCIFERASE INFECTION ASSAY - IC50”, the 50% inhibitory concentration (IC50) stood at 8.34 µM.
